Results on 5 compounds are retold here after ChEMBL document CHEMBL1122408, “Pyridinylpiperazines, a new class of selective alpha 2-adrenoceptor antagonists” (J Med Chem, 1983).

Where only a bound is given, the exact number is not on record here.

Experiment [1] has as its target Adrenergic receptor alpha-2 (Rattus norvegicus) (UniProt P22086+P19328+P22909).
In experiment [2] the target is T1, Adrenergic receptor alpha-2 (Rattus norvegicus, UniProt P22086+P19328+P22909).
T1 sequence (P22086 whole entry): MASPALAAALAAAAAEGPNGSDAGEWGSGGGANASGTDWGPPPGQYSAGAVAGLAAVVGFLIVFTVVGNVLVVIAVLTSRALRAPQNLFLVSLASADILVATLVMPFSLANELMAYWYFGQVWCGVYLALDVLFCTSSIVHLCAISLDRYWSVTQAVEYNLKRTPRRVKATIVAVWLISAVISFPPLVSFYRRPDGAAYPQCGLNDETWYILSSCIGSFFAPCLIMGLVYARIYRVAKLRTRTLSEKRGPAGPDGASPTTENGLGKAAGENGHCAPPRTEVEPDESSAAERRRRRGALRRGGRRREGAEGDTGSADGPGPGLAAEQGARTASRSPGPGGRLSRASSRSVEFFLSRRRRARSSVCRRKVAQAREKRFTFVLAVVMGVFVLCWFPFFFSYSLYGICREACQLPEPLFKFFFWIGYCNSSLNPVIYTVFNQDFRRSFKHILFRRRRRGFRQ
T1 sequence (P19328 whole entry): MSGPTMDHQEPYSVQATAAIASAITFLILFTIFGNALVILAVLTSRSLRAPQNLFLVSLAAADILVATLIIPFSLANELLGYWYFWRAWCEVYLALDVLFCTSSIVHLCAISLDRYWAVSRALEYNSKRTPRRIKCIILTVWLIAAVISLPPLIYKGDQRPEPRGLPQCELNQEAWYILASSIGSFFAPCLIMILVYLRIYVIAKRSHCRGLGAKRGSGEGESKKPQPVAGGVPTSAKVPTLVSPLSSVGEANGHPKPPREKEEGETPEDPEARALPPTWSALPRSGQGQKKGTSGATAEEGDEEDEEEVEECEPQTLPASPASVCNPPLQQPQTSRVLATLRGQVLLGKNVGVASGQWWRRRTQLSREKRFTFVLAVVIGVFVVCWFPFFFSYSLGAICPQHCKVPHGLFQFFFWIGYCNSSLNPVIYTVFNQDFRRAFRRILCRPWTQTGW
T1 sequence (P22909 whole entry): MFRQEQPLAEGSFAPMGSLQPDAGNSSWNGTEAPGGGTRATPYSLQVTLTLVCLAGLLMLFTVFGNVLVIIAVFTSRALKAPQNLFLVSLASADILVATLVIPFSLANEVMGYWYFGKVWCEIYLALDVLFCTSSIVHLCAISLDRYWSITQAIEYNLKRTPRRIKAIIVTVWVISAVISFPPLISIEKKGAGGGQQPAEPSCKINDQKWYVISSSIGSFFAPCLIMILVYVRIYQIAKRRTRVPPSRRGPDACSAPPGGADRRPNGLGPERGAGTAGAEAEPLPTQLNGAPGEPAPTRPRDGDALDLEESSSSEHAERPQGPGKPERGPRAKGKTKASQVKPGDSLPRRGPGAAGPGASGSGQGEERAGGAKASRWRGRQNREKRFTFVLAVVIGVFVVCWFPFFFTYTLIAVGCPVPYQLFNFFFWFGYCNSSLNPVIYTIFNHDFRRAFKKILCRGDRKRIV
Description: Presynaptic antagonistic activity against alpha-2 adrenergic receptor from rat, isolated, field-stimulated vas deferens, using clonidine as the agonist. The format is functional.

Experiment [3] has as its target T2, Alpha-1A adrenergic receptor (Bos taurus, UniProt P18130).
T2 sequence (P18130 whole entry): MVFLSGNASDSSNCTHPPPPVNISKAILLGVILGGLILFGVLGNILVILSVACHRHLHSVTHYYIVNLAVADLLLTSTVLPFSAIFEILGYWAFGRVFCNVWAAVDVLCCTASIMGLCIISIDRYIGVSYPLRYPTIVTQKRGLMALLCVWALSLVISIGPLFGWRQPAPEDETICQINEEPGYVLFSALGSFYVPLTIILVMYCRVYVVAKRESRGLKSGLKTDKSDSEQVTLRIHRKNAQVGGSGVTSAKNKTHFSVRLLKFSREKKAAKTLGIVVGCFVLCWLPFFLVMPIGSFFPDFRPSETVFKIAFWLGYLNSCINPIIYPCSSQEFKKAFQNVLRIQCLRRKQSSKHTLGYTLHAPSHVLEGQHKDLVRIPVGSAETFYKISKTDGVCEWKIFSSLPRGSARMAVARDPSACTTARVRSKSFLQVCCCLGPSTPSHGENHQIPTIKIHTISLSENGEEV
The experiment is described as follows: Binding activity against alpha-1 adrenergic receptor from calf cerebral cortex, using [3H]-prazosin as the radioligand. The format is tissue-based.
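Wherever AD50 is given: anesthetized rats, antagonism at central alpha-2 adrenergic receptors read out as reversal of mydriasis induced by clonidine.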

In the case of `Fc1cccnc1N1CCNCC1`, the AD50 in experiment [1] was 0.23 mg/kg. Moreover, the pA2 (as a rule, a measure of antagonist potency on a negative log scale) in experiment [2] is 6.9. The Ki – broadly, the dissociation constant of the complex between target and ligand, obtained from inhibition or displacement – in experiment [3] turned out to be 2500 nM.
The corresponding values for `Clc1cccnc1N1CCN(Cc2ccccc2)CC1` are more than 3 mg/kg, 6.5 and 700 nM.
`Clc1ccccc1N1CCNCC1` had an AD50 in experiment [1] of 1.03 mg/kg. The same compound registered a pA2 in experiment [2] of 6. Further, the inhibitory constant (Ki) in experiment [3] is 160 nM.
In experiment [1], `CN1CCN(c2ncccc2F)CC1` came in with an AD50 of 0.67 mg/kg. The same compound showed a pA2 in experiment [2] of 7.4. Moreover, the affinity in experiment [3], expressed as Ki, was 490 nM.
`CN1CCN(c2ncccc2Cl)CC1` had an AD50 in experiment [1] of 0.56 mg/kg. Further, the pA2 in experiment [2] is listed as 7.4. In experiment [3], this compound had a Ki of 215 nM.
